In patent US20250320562A1, “ALTERNATIVELY SPLICED ISOFORM IN CANCER AND METHODS OF USE THEREOF” (THE CHILDREN'S HOSPITAL OF PHILADELPHIA, priority 2022, published 2025):

Key:
[1] = test system: REH cells over-expressing the WT, E4a or R238W NT5C2 isoforms; assay: 6-MP chemoresistance in vivo in xenografted B-ALL cells expressing NT5C2 isoforms; design: species or system mice; conditions: xenografted B-ALL cells expressing NT5ex4a
From the text: FIG. 5: NT5C2 E4a alternative isoform in 6-MP resistance. (Left panel) Bioluminescent mouse image of mice engrafted with REH cells over-expressing the WT, E4a or R238W NT5C2 isoforms at different time points. (Right panel) Flux quantification of mice engrafted with REH cells over-expressing the WT, E4a or R238W NT5C2 isoforms at different time points.
(§1) Consistent with this biochemical finding, in reconstituted NT5C2low B-ALL cells NT5ex4a conferred the same level of resistance to 6-MP as the variant with the R238W hotspot mutation (2-log difference in IC50). […] Therefore, inclusion of NT5C2 exon 4a phenocopies relapse-specific mutations and could serve as both a valuable predictive biomarker in B-ALL and potentially chronic myelogenous (CML) and acute myeloid leukemia (AML).

MHHCALL4 cell line = assay: 6-MP dose-response in CRISPR/Cas9 NT5C2-KO and NT5ex4a (E4a) KO models, MHHCALL4; type: cell-based
From the text: (§2) FIG. 4: NT5C2 KO in MHHCALL4. (Top left panel) CRISPR/CAS9 strategy for the generation of total NT5C2 or NT5ex4a isoform specific KOs, representing the exons that will be targeted for each model. (Top right panel) Western-Blot of the NT5C2 levels on the parental, NT5C2-KO and NT5ex4a (E4a) KO models in the 697 and MHHCALL4 cell lines.
as §1

697 cell line = assay: 6-MP dose-response in CRISPR/Cas9 NT5C2-KO model, 697; type: cell-based
From the text: as §2

[2] = test system: reconstituted NT5C2low B-ALL cells; assay: Resistance to 6-MP in reconstituted NT5C2low B-ALL cells expressing NT5C2 isoforms; type: cell-based
From the text: FIGS. 8A-8C: Possible effects of phosphorylation of the NT5C2 activity. (FIG. 8A) Predicted serine and threonine phosphorylation sites in the NT5C2 amino acid sequence. […] (SEQ ID NOS: 5-24) (FIG. 8B) Top ten kinases predicted to phosphorylate the NT5C2 exon NT5ex4a-encoded peptide. (FIG. 8C) Increased pro-survival activity of NT5C2 E4a isoform where the Ser-121 has been replaced by a phosphomimetic aspartic acid (S121D). Compare curves with rectangles and triangles.
as §1
To determine the mechanism underlying the pro-survival activity of the NT5C2 E4a isoform, it was considered that it might be phosphorylated. Indeed, the application of predictive algorithms identified serine at position 121 as the residue in exon NT5ex4a most likely to be phosphorylated (FIG. 8A). Based on the amino acid context, it most strongly resembles consensus sites for kinases of the AGC, CAMK, and PIKK families. The latter includes such important cancer-related kinases as ATR and ATM (FIG. 8B). […]

[3] = test system: B-ALL cells expressing NT5ex4a; assay: In vitro sensitivity to mizoribine of cells expressing the non-canonical NT5C2 isoform; type: cell-based; conditions: expression of the non-canonical isoform NT5ex4a
From the text: FIG. 6: Mizoribine specifically blocks the […], adding extra pressure in NT5C2 hyperactive cells (Dieck et al., Blood, 2019). (Left panel) Mechanism of action of 6-MP and 6-TG purine analogs. (Right panel) Effects of NT5C2 activating-mutations on purine bases synthesis and degradation.
as §1

Row | SMILES | chemoresistance in vivo [1] | cell survival in the presence of 6-MP (MHHCALL4 cell line; CRISPR/Cas9 engineered NT5ex4a KO cells) | sensitivity to 6-MP treatment (dose-response plots) (MHHCALL4 cell line; E4a-KO, E4a-high expression MHHCALL4) | sensitivity to 6-MP treatment (dose-response plots) (MHHCALL4 cell line; NT5C2-KO, MHHCALL4) | sensitivity to 6-MP treatment (dose-response plots) (697 cell line) | survival in the presence of 6-MP ([2]; E4a isoform with Ser-121 replaced by aspartic acid (S121D) versus parental E4a or the alanine derivative) | difference in IC50 (resistance to 6-MP) ([2]; NT5ex4a, same level of resistance as the R238W hotspot mutation variant, compared to the canonical isoform) | sensitivity to mizoribine [3]
1 | S=c1nc[nH]c2nc[nH]c12 [6-MP, mercaptopurine] | chemoresistance in vivo was further confirmed | reduced cell survival | increased sensitivity | increased sensitivity | increased sensitivity | stronger survival advantages | 2 log | –
2 | NC(=O)c1ncn([C@@H]2O[C@H](CO)[C@@H](O)[C@H]2O)c1O [mizoribine, 4-carbamoyl-1-β-d-ribofuranosyl imirdozolium] | – | – | – | – | – | – | – | collateral sensitivity
